The results in this text go back to paper PMC12755129 (Blood, 2025).

This experiment addresses LRRC8A (SWELL1), LRRC8 volume-regulated anion channel complex (Homo sapiens, UniProt Q8IWT6). Description: patch clamp of hypotonic swell-activated VRAC/ATP currents in MEG-01 cells. It counts as cell-based.

Chain of LRRC8A (SWELL1), LRRC8 volume-regulated anion channel complex (Q8IWT6 whole entry): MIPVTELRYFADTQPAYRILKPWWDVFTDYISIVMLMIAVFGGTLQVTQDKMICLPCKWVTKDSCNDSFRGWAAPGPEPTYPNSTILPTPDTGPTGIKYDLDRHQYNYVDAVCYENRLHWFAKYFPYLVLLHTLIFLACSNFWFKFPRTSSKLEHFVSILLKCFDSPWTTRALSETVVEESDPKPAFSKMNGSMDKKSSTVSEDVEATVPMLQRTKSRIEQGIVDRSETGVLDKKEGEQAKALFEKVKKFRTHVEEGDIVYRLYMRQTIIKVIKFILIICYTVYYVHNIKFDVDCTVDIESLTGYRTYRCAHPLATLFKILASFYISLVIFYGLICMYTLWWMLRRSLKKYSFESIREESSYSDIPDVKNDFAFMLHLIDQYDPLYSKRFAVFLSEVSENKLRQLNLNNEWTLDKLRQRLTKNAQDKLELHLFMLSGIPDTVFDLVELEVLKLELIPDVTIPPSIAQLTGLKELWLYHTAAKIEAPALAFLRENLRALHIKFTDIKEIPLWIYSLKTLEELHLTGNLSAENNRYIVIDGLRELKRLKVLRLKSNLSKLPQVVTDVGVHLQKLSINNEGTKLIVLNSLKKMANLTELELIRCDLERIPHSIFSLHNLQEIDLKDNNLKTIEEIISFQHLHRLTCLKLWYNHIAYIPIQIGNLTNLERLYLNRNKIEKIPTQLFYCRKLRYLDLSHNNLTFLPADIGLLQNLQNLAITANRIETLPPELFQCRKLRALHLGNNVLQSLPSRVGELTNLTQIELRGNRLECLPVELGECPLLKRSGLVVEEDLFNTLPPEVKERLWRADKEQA
Chain of LRRC8A (SWELL1), LRRC8 volume-regulated anion channel complex (Q6P9F7 whole entry partner): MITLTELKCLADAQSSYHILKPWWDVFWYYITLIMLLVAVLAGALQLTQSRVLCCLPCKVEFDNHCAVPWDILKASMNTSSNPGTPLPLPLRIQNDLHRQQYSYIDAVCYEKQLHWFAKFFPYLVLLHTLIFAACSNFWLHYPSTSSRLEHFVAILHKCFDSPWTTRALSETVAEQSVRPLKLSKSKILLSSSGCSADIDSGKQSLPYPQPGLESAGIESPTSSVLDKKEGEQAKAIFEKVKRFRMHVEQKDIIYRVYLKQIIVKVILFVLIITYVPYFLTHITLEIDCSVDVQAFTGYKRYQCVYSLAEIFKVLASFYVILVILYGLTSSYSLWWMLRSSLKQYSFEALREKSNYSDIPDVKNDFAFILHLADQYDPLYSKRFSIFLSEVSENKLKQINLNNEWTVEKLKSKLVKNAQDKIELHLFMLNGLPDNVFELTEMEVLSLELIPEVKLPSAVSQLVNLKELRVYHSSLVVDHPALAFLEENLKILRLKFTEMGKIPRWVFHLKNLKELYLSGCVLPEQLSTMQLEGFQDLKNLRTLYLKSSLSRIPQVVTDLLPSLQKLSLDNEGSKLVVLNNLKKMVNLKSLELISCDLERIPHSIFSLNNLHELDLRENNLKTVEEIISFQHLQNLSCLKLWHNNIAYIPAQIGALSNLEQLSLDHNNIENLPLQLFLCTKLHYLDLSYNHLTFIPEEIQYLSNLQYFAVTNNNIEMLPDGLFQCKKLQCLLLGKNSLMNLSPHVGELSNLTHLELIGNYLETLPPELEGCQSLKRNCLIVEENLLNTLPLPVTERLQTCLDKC
Chain of LRRC8A (SWELL1), LRRC8 volume-regulated anion channel complex (Q8TDW0 whole entry partner): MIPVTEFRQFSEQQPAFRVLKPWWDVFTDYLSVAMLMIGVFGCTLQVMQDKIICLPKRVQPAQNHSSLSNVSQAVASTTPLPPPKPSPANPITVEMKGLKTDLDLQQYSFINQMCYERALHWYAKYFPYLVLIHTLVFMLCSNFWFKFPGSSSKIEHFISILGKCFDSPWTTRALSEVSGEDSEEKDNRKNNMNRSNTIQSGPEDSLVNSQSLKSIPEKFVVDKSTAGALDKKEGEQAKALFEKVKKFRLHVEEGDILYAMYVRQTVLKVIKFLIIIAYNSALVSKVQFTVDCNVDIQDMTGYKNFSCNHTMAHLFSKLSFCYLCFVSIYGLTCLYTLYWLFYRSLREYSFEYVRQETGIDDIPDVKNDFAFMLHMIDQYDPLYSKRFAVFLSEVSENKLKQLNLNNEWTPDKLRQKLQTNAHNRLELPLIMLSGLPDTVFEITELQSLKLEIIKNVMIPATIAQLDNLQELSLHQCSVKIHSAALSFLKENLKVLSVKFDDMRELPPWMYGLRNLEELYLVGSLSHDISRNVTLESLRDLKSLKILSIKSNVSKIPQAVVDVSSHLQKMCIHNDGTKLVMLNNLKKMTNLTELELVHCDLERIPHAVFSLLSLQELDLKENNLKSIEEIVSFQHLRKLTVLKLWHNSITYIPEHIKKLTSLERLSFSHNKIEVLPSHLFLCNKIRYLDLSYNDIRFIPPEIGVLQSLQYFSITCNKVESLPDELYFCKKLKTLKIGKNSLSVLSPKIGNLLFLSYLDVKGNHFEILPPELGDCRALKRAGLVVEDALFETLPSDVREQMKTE
Chain of LRRC8A (SWELL1), LRRC8 volume-regulated anion channel complex (Q7L1W4 whole entry partner): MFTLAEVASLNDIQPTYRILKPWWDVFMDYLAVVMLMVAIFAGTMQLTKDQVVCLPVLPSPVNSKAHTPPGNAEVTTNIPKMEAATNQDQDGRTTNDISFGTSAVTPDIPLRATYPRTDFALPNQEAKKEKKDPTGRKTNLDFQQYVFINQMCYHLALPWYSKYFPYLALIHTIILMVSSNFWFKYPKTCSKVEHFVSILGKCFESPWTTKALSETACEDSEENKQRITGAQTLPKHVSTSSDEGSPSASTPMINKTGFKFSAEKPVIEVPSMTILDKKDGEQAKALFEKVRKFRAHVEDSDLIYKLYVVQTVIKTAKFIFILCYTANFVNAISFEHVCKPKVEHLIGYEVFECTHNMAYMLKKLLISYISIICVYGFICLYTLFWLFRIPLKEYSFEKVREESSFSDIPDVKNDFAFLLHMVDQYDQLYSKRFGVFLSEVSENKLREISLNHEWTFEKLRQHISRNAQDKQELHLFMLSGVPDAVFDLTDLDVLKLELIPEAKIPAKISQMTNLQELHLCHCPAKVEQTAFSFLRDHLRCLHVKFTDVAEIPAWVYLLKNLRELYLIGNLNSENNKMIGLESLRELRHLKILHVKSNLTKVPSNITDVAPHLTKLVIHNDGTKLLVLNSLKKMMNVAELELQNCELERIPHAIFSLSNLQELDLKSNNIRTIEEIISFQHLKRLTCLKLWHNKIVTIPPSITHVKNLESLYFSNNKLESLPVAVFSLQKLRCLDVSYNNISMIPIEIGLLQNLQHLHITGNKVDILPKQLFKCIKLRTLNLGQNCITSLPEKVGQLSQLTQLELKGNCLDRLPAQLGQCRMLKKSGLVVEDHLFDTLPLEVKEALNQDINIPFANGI

SN-406 registered an IC50 of 1000 nM. For `CCCCC1(C2CCCC2)Cc2cc(OCCCC(=O)O)c(Cl)c(Cl)c2C1=O` (centres unmarked) [SN-401, 4-(2-butyl-6,7-dichloro-2-cyclopentylindan-1-on-5-yl)oxybutyric acid] the value was 1500 nM.
